Columns and labels:
[1] = tested on: proteasome reporter cell line MelJuSo Ub-YFP (UbG76V-YFP); assay: Ub-YFP proteasome reporter cell line, accumulation of reporter; type: cell-based; conditions: Homo sapiens, MEL-JUSO; immunoblotting and flow cytometry; read-out: IC50, dose dependent accumulation of the Ub-YFP reporter
Description: b-AP15 blocks cellular proteasome function, as confirmed by use of a reporter cell line, which expresses ubiquitin tagged to yellow fluorescent protein (UbG76V-YFP) constitutively targeted for proteasomal degradation (12). […] Since inhibition of proteasome function is characterized by defects in ubiquitin turnover (13) colon carcinoma HCT116 cells were treated with b-AP15 and the level of ubiqutin conjugation analyzed by immunoblotting. […] The increase in polyubiquitin is associated with a strong proteotoxic response characterized by induction of HSPA6 (Hsp70B′), HSPA1B and DNAJB1 (Hsp40).
MCF7 cells were maintained in MEM/10% fetal calf serum. HCT-116 p53+/+, p53−/−, Bcl-2+/+, PUMA−/− and BAX−/− cells were maintained in McCoy's 5A modified medium/10% fetal calf serum. The HCT-116 p53+/+, p53−/−, PUMA−/− and BAX−/− were generated as described (36). The HCT-116 Bcl-2+/+ cell line was generated by transfecting parental HCT-116 p53+/+ cells with pCEP4 Bcl-2 (Addgene plasmid 16461) (37) and isolating high expression clones. […]
b-AP15 inhibits degradation of ubiquitin-tagged YFP in a proteasome reporter cell line (FIG. 1a). Levels of ^UbG76V-YFP accumulation were determined by flow cytometry and immunoblotting; immunoblot of ubiquitin conjugation in HCT-116 cells treated with b-AP15 (1 μM) or bortezomib (100 nM) (FIG. 1b). […]

[2] = molecular target: T1, human 19S RP (Homo sapiens, UniProt P54578+Q9Y5K5); assay: De-ubiquitinase activity assay, Ub-AMC cleavage by 19S RP; type: biochemical; conditions: read-out: IC50, DUB activity by detection of Ub-AMC cleavage
T1 construct: purchased Boston Biochem E-366

[3] = tested on: FaDu head and neck carcinoma xenografts; assay: FaDu head and neck carcinoma xenografts in SCID mice; type: in vivo
Description: In vitro proteasome activity assays were performed in black 96-well microtitier plates using human 20S proteasome (Boston Biochem) in reaction buffer (25 mM Hepes, 0.5 mM EDTA, 0.03% SDS) with Suc-LLVY-AMC, Z-LLE-AMC or Boc-LRRAMC used as substrates for proteasome activity. De-ubiquitinase activity assays were performed with human 19S RP (Boston Biochem) with ubiquitin-AMC as substrate. For FaDu xenograft studies a 100-μl-cell suspension containing 1×10^6 cells was injected subcutaneously into the flank of SCID. Upon tumor take mice were randomized into control or treatment groups and administered with 5 mg kg^−1 b-AP15 or vehicle. In vivo levels of apoptosis and cell death were determined from the detection of caspase cleaved and total levels of cytokeratin-18 in plasma using M30 Apoptosense® and M65 ELISA®s assays (Peviva). […]
Animal experiments were conducted in full accordance with Swedish governmental statutory regulations on animal welfare under permission from local ethical committees. […] All mice were monitored and weighed daily. […] After injection, tumor growth was measured daily with calipers and the tumor volume calculated by the formula L×W^2×0.44. […] Nineteen days after malignant cell injection all of the mice were killed and histopathological manifestations of liver, ovary (target organs for this model of tumor) were evaluated and compared between groups. […]

C=CC(=O)N1C/C(=C\c2ccc([N+](=O)[O-])cc2)C(=O)/C(=C/c2ccc([N+](=O)[O-])cc2)C1 [b-AP15, (3E,5E)-3,5-bis[(4-nitrophenyl)methylidene]-1-(prop-2-enoyl)piperidin-4-one]
IC50 [1]: 0.8 µM | IC50 [2]: 2.1 ± 0.411 µM | treated/control tumor volume, T/C ([3]; 5 mg/kg s.c. daily for 10 days, p=<0.001): 0.4 | difference in weight at the start and the endpoint between control and treated animals ([3]; FaDu xenograft): −1.3%
